According to PubChem BioAssay AID194 (DTP/NCI, 2004):
“And” between values parts separate entries of the source, which are not always exact repeats. Equal entries are not always repeated. Results filed as inconclusive are left out. Where a SMILES comes first, the peptide text is derived from it. Bridges are numbered along the chain shown (N, C = ends). Roman numbers before positions name the chains, in order. [ ]: non-standard residue; d: D form. The star is where a group is joined. Quinoxaline2carbonyl = O=C(c1cnc2ccccc2n1)*; NMeV = CN[CH](C(=O)O)C(C)C; NMeC = CN[CH](CS)C(=O)O

System: BDF1 mice, B16 melanoma s.c., survival/tumor T/C
Assay: NCI In Vivo Anticancer Drug Screen. Data for tumor model B16 Melanoma (subcutaneous) in B6D2F1 (BDF1) mice
Protocol: The antitumor activity of compounds was measured in mice bearing transplantable tumors. Survival or tumor size were measured and the results are expressed as the measurement made in the treated group (T) divided by the measurement made in the vehicle treated control group (C). The tumor model used in this assay is B16 Melanoma (subcutaneous) in B6D2F1 (BDF1) mice

[1] = endpoint: median survival time, dose: 0.5 mg/kg/injection, schedule: Q01DX009 (ip), vehicle: saline with Tween-80, higher = longer survival
[2] = endpoint: median survival time, dose: 1.0 mg/kg/injection, schedule: Q01DX009 (ip), vehicle: saline with Tween-80, higher = longer survival
[3] = endpoint: median survival time, dose: 2.0 mg/kg/injection, schedule: Q01DX009 (ip), vehicle: saline with Tween-80, higher = longer survival

CC1NC(=O)C(NC(=O)c2cnc3ccccc3n2)COC(=O)C(C(C)C)N(C)C(=O)C2CSSCC(C(=O)N(C)C(C(C)C)C(=O)OCC(NC(=O)c3cnc4ccccc4n3)C(=O)NC(C)C(=O)N2C)N(C)C1=O (configuration not stated) (I: Quinoxaline2carbonyl-SA[NMeC][NMeV] / II: Quinoxaline2carbonyl-SA[NMeC][NMeV]; ester I:1-II:C, I:C-II:1; disulfide I:3-II:3; configuration not given here)
T/C (endpoint: median survival time, dose: 11.2 micrograms/kg/injection, schedule: Q01DX009 (ip), vehicle: Klucel (hydroxypropylcellulose) (HPC), higher = longer survival): 91 % of control
T/C (endpoint: median survival time, dose: 22.5 micrograms/kg/injection, schedule: Q01DX009 (ip), vehicle: Klucel (hydroxypropylcellulose) (HPC), higher = longer survival): 107 % of control
T/C (endpoint: median survival time, dose: 45.0 micrograms/kg/injection, schedule: Q01DX009 (ip), vehicle: Klucel (hydroxypropylcellulose) (HPC), higher = longer survival): 109 % of control
T/C (endpoint: median survival time, dose: 90.0 micrograms/kg/injection, schedule: Q01DX009 (ip), vehicle: Klucel (hydroxypropylcellulose) (HPC), higher = longer survival): 104 % of control

O=C(O)CCCCC1CCSS1 (configuration not stated)
T/C (endpoint: median survival time, dose: 7.81 mg/kg/injection, schedule: Q01DX009 (ip), vehicle: Klucel (hydroxypropylcellulose) (HPC), higher = longer survival): 116 % of control and 117 % of control
T/C (endpoint: median survival time, dose: 15.62 mg/kg/injection, schedule: Q01DX009 (ip), vehicle: Klucel (hydroxypropylcellulose) (HPC), higher = longer survival): 112 % of control and 116 % of control
T/C (endpoint: median survival time, dose: 125.0 mg/kg/injection, schedule: Q01DX009 (ip), vehicle: Klucel (hydroxypropylcellulose) (HPC), higher = longer survival): 99 % of control and 100 % of control

O=C1C(=O)c2ccccc2C(O)=C1CC=C(Cl)Cl
T/C (endpoint: median survival time, dose: 8.0 mg/kg/injection, schedule: Q01DX009 (ip), vehicle: saline + alcohol, higher = longer survival): 87 % of control
T/C (endpoint: median survival time, dose: 16.0 mg/kg/injection, schedule: Q01DX009 (ip), vehicle: saline + alcohol, higher = longer survival): 109 % of control
T/C (endpoint: median survival time, dose: 32.0 mg/kg/injection, schedule: Q01DX009 (ip), vehicle: saline + alcohol, higher = longer survival): 77 % of control
T/C (endpoint: median tumor weight (est.), dose: 12.5 mg/kg/injection, schedule: Q01DX009 (ip), vehicle: Klucel (hydroxypropylcellulose) (HPC), higher = larger tumour): 94 % of control and 104 % of control and 108 % of control
T/C (endpoint: median tumor weight (est.), dose: 50.0 mg/kg/injection, schedule: Q01DX009 (ip), vehicle: Klucel (hydroxypropylcellulose) (HPC), higher = larger tumour): 53 % of control and 55 % of control and 64 % of control

CCCCNCCCNCCCNC(=O)c1csc(-c2csc(CCNC(=O)C(NC(=O)C(C)C(O)C(C)NC(=O)C(NC(=O)c3nc(C(CC(N)=O)NCC(N)C(N)=O)nc(N)c3C)C(OC3OC(CO)C(O)C(O)C3OC3OC(CO)C(O)C(OC(N)=O)C3O)c3cnc[nH]3)C(C)O)n2)n1 (configuration not stated)
T/C (endpoint: median survival time, dose: 0.31 mg/kg/injection, schedule: Q01DX009 (ip), vehicle: water, higher = longer survival): 86 % of control
T/C (endpoint: median survival time, dose: 0.62 mg/kg/injection, schedule: Q01DX009 (ip), vehicle: water, higher = longer survival): 154 % of control
T/C (endpoint: median survival time, dose: 1.25 mg/kg/injection, schedule: Q01DX009 (ip), vehicle: water, higher = longer survival): 120 % of control
T/C (endpoint: median survival time, dose: 2.5 mg/kg/injection, schedule: Q01DX009 (ip), vehicle: water, higher = longer survival): 122 % of control
T/C (endpoint: median survival time, dose: 5.0 mg/kg/injection, schedule: Q01DX009 (ip), vehicle: water, higher = longer survival): 158 % of control

COC1=C2C[C@@H](C)C[C@@H](OC)[C@@H](O)[C@H](C)/C=C(\C)[C@@H](OC(N)=O)[C@H](OC)/C=C\C=C(/C)C(=O)NC(=CC1=O)C2=O
T/C (endpoint: median survival time, dose: 0.5 mg/kg/injection, schedule: Q01DX005 (ip), vehicle: water, higher = longer survival): 118 % of control
T/C (endpoint: median survival time, dose: 1.0 mg/kg/injection, schedule: Q01DX005 (ip), vehicle: water, higher = longer survival): 105 % of control

CC(=O)NNC(=O)c1ccccn1
T/C (endpoint: median survival time, dose: 6.25 mg/kg/injection, schedule: Q01DX009 (ip), vehicle: Klucel (hydroxypropylcellulose) (HPC), higher = longer survival): 102 % of control
T/C (endpoint: median survival time, dose: 12.5 mg/kg/injection, schedule: Q01DX009 (ip), vehicle: Klucel (hydroxypropylcellulose) (HPC), higher = longer survival): 92 % of control
T/C (endpoint: median survival time, dose: 25.0 mg/kg/injection, schedule: Q01DX009 (ip), vehicle: Klucel (hydroxypropylcellulose) (HPC), higher = longer survival): 86 % of control
T/C (endpoint: median survival time, dose: 50.0 mg/kg/injection, schedule: Q01DX009 (ip), vehicle: Klucel (hydroxypropylcellulose) (HPC), higher = longer survival): 88 % of control and 98 % of control
T/C (endpoint: median survival time, dose: 100.0 mg/kg/injection, schedule: Q01DX009 (ip), vehicle: Klucel (hydroxypropylcellulose) (HPC), higher = longer survival): 88 % of control

S=P(N1CC1)(N1CC1)N1CC1
T/C (endpoint: median survival time, dose: 1.0 mg/kg/injection, schedule: Q01DX001 (oral), vehicle: saline, higher = longer survival): 97 % of control
T/C (endpoint: median survival time, dose: 1.0 mg/kg/injection, schedule: Q02DX009 (ip), vehicle: saline, higher = longer survival): 109 % of control and 113 % of control
T/C (endpoint: median survival time, dose: 2.0 mg/kg/injection, schedule: Q01DX001 (oral), vehicle: saline, higher = longer survival): 89 % of control
T/C (endpoint: median survival time, dose: 2.0 mg/kg/injection, schedule: Q01DX009 (ip), vehicle: saline, higher = longer survival): 106 % of control
T/C (endpoint: median survival time, dose: 2.0 mg/kg/injection, schedule: Q02DX009 (ip), vehicle: saline, higher = longer survival): 99 % of control and 202 % of control
T/C (endpoint: median survival time, dose: 4.0 mg/kg/injection, schedule: Q01DX001 (oral), vehicle: saline, higher = longer survival): 98 % of control
T/C (endpoint: median survival time, dose: 8.0 mg/kg/injection, schedule: Q01DX001 (oral), vehicle: saline, higher = longer survival): 100 % of control
T/C (endpoint: median survival time, dose: 8.0 mg/kg/injection, schedule: Q02DX009 (ip), vehicle: saline, higher = longer survival): 98 % of control
T/C (endpoint: median survival time, dose: 12.5 mg/kg/injection, schedule: Q01DX001 (ip), vehicle: saline, higher = longer survival): 105 % of control
T/C (endpoint: median survival time, dose: 16.0 mg/kg/injection, schedule: Q01DX001 (oral), vehicle: saline, higher = longer survival): 100 % of control

CN(Cc1cnc2nc(N)nc(N)c2n1)c1ccc(C(=O)N[C@@H](CCC(=O)O)C(=O)O)cc1
T/C [1]: 100 % of control
T/C [2]: 100 % of control
T/C [3]: 89 % of control
T/C (endpoint: median tumor weight (est.), dose: 0.5 mg/kg/injection, schedule: Q01DX009 (ip), vehicle: saline with Tween-80, higher = larger tumour): 173 % of control
T/C (endpoint: median tumor weight (est.), dose: 1.0 mg/kg/injection, schedule: Q01DX009 (ip), vehicle: saline with Tween-80, higher = larger tumour): 81 % of control

COc1cccc2c1C(=O)c1c(O)c3c(c(O)c1C2=O)C[C@@](O)(C(=O)COC(=O)Cc1ccccc1)C[C@@H]3OC1CC(N)C(O)C(C)O1 (some centres not stated)
T/C [1]: 86 % of control
T/C [2]: 88 % of control
T/C [3]: 94 % of control

COc1cccc2c1C(=O)c1c(O)c3c(c(O)c1C2=O)C[C@@](O)(C(=O)CO)C[C@@H]3OC1CC(N)C(O)C(C)O1 (some centres not stated)
T/C (endpoint: median survival time, dose: 0.12 mg/kg/injection, schedule: Q01DX009 (ip), vehicle: saline, higher = longer survival): 100 % of control and 111 % of control
T/C (endpoint: median survival time, dose: 1.0 mg/kg/injection, schedule: Q01DX008 (ip), vehicle: saline, higher = longer survival): 100 % of control
T/C (endpoint: median survival time, dose: 1.5 mg/kg/injection, schedule: Q01DX008 (ip), vehicle: saline, higher = longer survival): 96 % of control

CC(NSc1ccccc1[N+](=O)[O-])C(=O)O (configuration not stated)
T/C (endpoint: median survival time, dose: 12.5 mg/kg/injection, schedule: Q01DX009 (ip), vehicle: saline with Tween-80, higher = longer survival): 109 % of control
T/C (endpoint: median survival time, dose: 25.0 mg/kg/injection, schedule: Q01DX009 (ip), vehicle: saline with Tween-80, higher = longer survival): 106 % of control
T/C (endpoint: median survival time, dose: 50.0 mg/kg/injection, schedule: Q01DX009 (ip), vehicle: saline with Tween-80, higher = longer survival): 89 % of control
T/C (endpoint: median survival time, dose: 100.0 mg/kg/injection, schedule: Q01DX009 (ip), vehicle: saline with Tween-80, higher = longer survival): 122 % of control

Nc1c(Cl)c(Cl)nc(C(=O)O)c1Cl
T/C (endpoint: median survival time, dose: 3.12 mg/kg/injection, schedule: Q02DX009 (ip), vehicle: Klucel (hydroxypropylcellulose) (HPC), higher = longer survival): 108 % of control
T/C (endpoint: median survival time, dose: 6.25 mg/kg/injection, schedule: Q01DX015 (sc), vehicle: other, higher = longer survival): 105 % of control
T/C (endpoint: median survival time, dose: 6.25 mg/kg/injection, schedule: Q02DX009 (ip), vehicle: Klucel (hydroxypropylcellulose) (HPC), higher = longer survival): 97 % of control
T/C (endpoint: median survival time, dose: 12.5 mg/kg/injection, schedule: Q01DX015 (sc), vehicle: other, higher = longer survival): 105 % of control
T/C (endpoint: median survival time, dose: 25.0 mg/kg/injection, schedule: Q01DX015 (sc), vehicle: other, higher = longer survival): 101 % of control
T/C (endpoint: median survival time, dose: 50.0 mg/kg/injection, schedule: Q02DX009 (ip), vehicle: Klucel (hydroxypropylcellulose) (HPC), higher = longer survival): 94 % of control
T/C (endpoint: median survival time, dose: 100.0 mg/kg/injection, schedule: Q02DX009 (ip), vehicle: Klucel (hydroxypropylcellulose) (HPC), higher = longer survival): 90 % of control
T/C (endpoint: median survival time, dose: 200.0 mg/kg/injection, schedule: Q02DX009 (ip), vehicle: Klucel (hydroxypropylcellulose) (HPC), higher = longer survival): 87 % of control

N=c1ccn2c(n1)OC1C(O)C(CO)OC12 (configuration not stated)
T/C (endpoint: median survival time, dose: 37.5 mg/kg/injection, schedule: Q01DX009 (ip), vehicle: saline, higher = longer survival): 95 % of control
T/C (endpoint: median survival time, dose: 75.0 mg/kg/injection, schedule: Q01DX009 (ip), vehicle: saline, higher = longer survival): 100 % of control
T/C (endpoint: median survival time, dose: 150.0 mg/kg/injection, schedule: Q01DX009 (ip), vehicle: saline, higher = longer survival): 101 % of control

O=C1NC2(CCCCC2)C(=O)N1CCN(CCCl)CCCl
T/C (endpoint: median survival time, dose: 1.5 mg/kg/injection, schedule: Q01DX009 (ip), vehicle: saline with Tween-80, higher = longer survival): 106 % of control
T/C (endpoint: median survival time, dose: 3.0 mg/kg/injection, schedule: Q01DX009 (ip), vehicle: saline with Tween-80, higher = longer survival): 96 % of control
T/C (endpoint: median survival time, dose: 6.0 mg/kg/injection, schedule: Q01DX009 (ip), vehicle: saline with Tween-80, higher = longer survival): 118 % of control

ClCC[N-]CC[N-]CCCl.ClCC[N-]CC[N-]CCCl.[O-][Cl+3]([O-])([O-])O.[Zn+2]
T/C (endpoint: median survival time, dose: 2.5 mg/kg/injection, schedule: Q01DX009 (ip), vehicle: saline with Tween-80, higher = longer survival): 102 % of control
T/C (endpoint: median survival time, dose: 5.0 mg/kg/injection, schedule: Q01DX009 (ip), vehicle: saline with Tween-80, higher = longer survival): 94 % of control
T/C (endpoint: median survival time, dose: 10.0 mg/kg/injection, schedule: Q01DX009 (ip), vehicle: saline with Tween-80, higher = longer survival): 115 % of control
T/C (endpoint: median survival time, dose: 20.0 mg/kg/injection, schedule: Q01DX009 (ip), vehicle: saline with Tween-80, higher = longer survival): 89 % of control
